Data on one molecule can be found in PMC9367672, “In vitro differences in toddalolactone metabolism in various species and its effect on cytochrome P450 expression” (Pharmaceutical Biology, 2022).

Like-named read-outs stand apart in the source and are kept apart here.

One data set relates to MIMs. Kind of data set: Enzyme kinetics of toddalolactone metabolism in mouse liver microsomes (oxidative metabolism). Format: in vitro ADME. The settings on record: MOMs (mouse liver microsomes), P450-catalyzed oxidation, P2 formation. The procedure: (§1) The CYP reaction system (200 μL) consisted of 0.1 M potassium phosphate buffer (pH 7.4), an NADPH-generating system (1 mM NADPH, 10 mM G-6-P, 1 unit/mL G-6-PD, 4 mM MgCl2), and liver microsomes or recombinant human microsomes (supersomes). Each of the in vitro enzymatic assays using liver microsomes was linear with respect to incubation time and amount of protein. After a pre-incubation at 37 °C for 3 min, the reactions were initiated by adding NADP^+. After incubating for 60 min, the reactions were quenched by adding 200 μL of ice-cold acetonitrile. Samples were centrifuged at 18,000 g for 15 min at 4 °C and 10 μL of supernatant was analyzed using an HPLC system. NADPH or CYP enzyme sources were not used in the control group to ensure that the metabolic reactions were CYP- and NADPH-dependent. All incubation assays were completed in triplicate. The data are presented as mean ± standard deviation (SD).
(§2) The enzyme kinetics of toddalolactone in oxidative metabolism and glucuronidation were determined by incubating liver microsomes (0.2 mg/mL) or CYPs (15 nM) with different concentrations of toddalolactone (1–200 μM). […] The in vitro intrinsic clearance (CLint) was calculated based on the Vmax/Km ratio. Metabolites were quantified using the standard curve for toddalolactone because of the absence of metabolite standards. […]
(§3) The enzyme kinetics in oxidative metabolism and glucuronidation of toddalolactone were studied, and preliminary experiments were performed to ensure that metabolites were formed in the linear range of both reaction time and microsomal protein concentration. […] Based on the results of toddalolactone metabolism in different species, the kinetic parameter values in RLMs, DLMs, MLMs, HLMs, RAMs, MIMs, PLMs, CYP1A1 and CYP3A5 were calculated using P4, P4, P4, P4, P2, P2, P4, P4 and P4 data in oxidative metabolism, respectively. In the glucuronidation reaction, the kinetic parameter values in RLMs, MLMs, HLMs, RAMs and PLMs were calculated using P5, P6, P6, P6 and P5 data, respectively.

Assay in data set [1]: as above
Type of data set: in vitro ADME. The settings on record: pH 7.4; MOMs (mouse liver microsomes); P450-catalyzed oxidation; P2 formation; Vmax/Km. The procedure:
as §1, §2, §3

Another data set has as its system RLMs. The data set is described as follows: Prediction of in vivo hepatic clearance in rats from RLM kinetics. Type of data set: in vitro ADME, rat. On the procedure: The in vivo hepatic clearances in oxidative metabolism and glucuronidation of toddalolactone were calculated using Equations (4)–(6) (Li et al. [2008]): (4) CLint in vitro=∑i=1nVmax(Mi)/Km(Mi) (5) CLint in vivo=CLint in vitro⋅SF (6) CLH=QH⋅fu⋅CLint in vivo/QH+fu⋅CLint in vivo where SF is the milligrams of microsomal protein per gram of liver multiplied by the grams of liver weight; CLH is hepatic clearance; fu is the unbound fraction in the blood (the value of fu was set to 1 due to the absence of available data for toddalolactone); QH is the blood flow in the liver; and Mi is the metabolite of toddalolacone. The physiological parameters to calculate intrinsic clearance were as follows. The liver weight of dogs, rats and humans were 32, 40 and 25.7 g/kg body weight, respectively; the content of microsomal protein was 77.9, 44.8 and 48.8 mg/g of liver; and the blood flow in the liver was 30.9, 55.2 and 20.7 mL/(min ⋅ kg), respectively (Naritomi et al. [2001]).

Data set [2] is described as follows: Metabolic stability assessment in human liver microsomes (CYP and UGT incubation systems). Type of data set: in vitro ADME. Particulars: pH 7.4, HLMs, toddalolactone 20 μM, 0-90 min. The procedure:
as §1, with “NADPH or CYP enzyme sources were not used in the control group to ensure that the metabolic reactions were CYP- and NADPH-dependent. All incubation assays were completed in triplicate. The data are presented as mean ± standard deviation (SD).” left out
In the UGT reaction system, liver microsomes were incubated in 200 μL of the reaction system containing 4 mM UDPGA, 5 mM MgCl2, 20 µg/mL alamethicin, and 50 mM Tris-HCl buffer (pH 7.4). […] After centrifugation at 18,000 g for 15 min, 10 μL of the supernatant was analyzed by HPLC.
Toddalolactone (20 μM) was incubated with different liver microsomes, including HLMs, DLMs, PLMs, MLMs, RAMs, RLMs or MIMs in oxidative metabolism and glucuronidation reaction systems. […] The mixtures were centrifuged at 18,000 g for 15 min at 4 °C and then 10 μL of the supernatant was analyzed by HPLC. […]
The peak areas of toddalolactone and its metabolites were detected using a HPLC system (Shimadzu, Kyoto, Japan). […]

In the data set with MIMs, `COc1cc2oc(=O)ccc2c(OC)c1C[C@@H](O)C(C)(C)O` [toddalolactone] registered a K m of 146.32 ± 26.62 µM. The molecule also returned a V max with MIMs (toddalolactone 1–200 μM) of 235.91 ± 22.75 pmol/min/mg protein. In data set [1], this molecule yielded a microsomal CLint of 1.61 µL/min/mg. Moreover, in the data set on RLMs (RLMs), the “CLH versus hepatic blood flow (QH)” value is recorded as 1.52%. The “clearance class according to predicted CLH” value in the data set on RLMs (rats) is “low-clearance (low-clearance drugs (<30% liver blood flow))”. Besides, the “in vivo hepatic clearance (CLH)” value with RLMs (rats, predicted from kinetic parameters of P1–P6, fu set to 1) is 1.12 mL/(min/kg body weight). For the same molecule, the half-life at 20 μM in data set [2] (CYP incubation system, read-out: half-life value (T1/2)) stood at 11.2 h; in data set [2] (UGT incubation system, read-out: T1/2 value), 1.38 h.
